Reference: patent US8377883B2, “Peptide for anti-angiogenesis and use thereof” (Beijing Institute for Cancer Research, priority 2006, dated 2013)

System: human colon cancer HT-29 cells
Assay: Tumor suppression in human colon cancer HT-29 tumor-bearing nude mice model
Format: in vivo, Balb/c nude mice
Conditions: 50 μg/100 μl PBS/injection, angulus oculi medialis vein once every other day, 10 times; vs vehicle, P<0.05
Protocol: In order to confirm the biological effects of FpAT on the growth of human deriving tumors in nude mice in vivo, a tumor suppression experiment was carried out in this example using human gastric carcinoma BGC-823 cells tumor-bearing nude mice model, human lung cancer PG cells tumor-bearing nude mice model and human colon cancer HT-29 cells tumor-bearing nude mice model.
Twenty 5-week old Balb/c nude mice purchased from Animal Center Of Chinese Academy Of Medical Sciences were inoculated subcutaneously in forelimb with human gastric carcinoma BGC-823 cells (National Institute for the Control of Pharmaceutical and Biological Products) (5×10^6/100 μl/mouse), human lung cancer PG cells (National Institute for the Control of Pharmaceutical and Biological Products) (5×10^6/100 μl/mouse) or human colon cancer HT-29 cells (ATCC® Number: HTB-38™) (5×10^6/100 μl/mouse). On the next day after inoculation, each kind of inoculated cells were divided into 2 groups randomly with 5 mice per group. […] Observation was continued for another 20 days after administration was stopped, and during this period the long and short diameters of the tumors were measured with a vernier caliper once every three days, and the volumes of the tumor mass were calculated according to formula ½×long diameter×short diameter^2. […]

## H2N-Asp-Ser-Gly-Glu-Gly-Asp-Phe-Leu-Ala-Glu-Gly-Gly-Gly-Val-Arg-COOH (H-DSGEGDFLAEGGGVR-OH; listed as Homo sapiens) [FpAT, fibrinopeptide A truncated, carboxyl terminal 15 amino acids of fibrinopeptide A]
  growth of human colon cancer HT-29 cells in nude mice (tumor mass): could suppress the growths
